Laboratory results taken from US6855843B2, “Inhibitors of α4 mediated cell adhesion” (Tanabe Seiyaku Co., Ltd., priority 1998, dated 2005).
Where a name gives a salt, the structure may show the parent alone.

Experiments:
[1] = biological target: T1, α4β7 (adhesion of RPMI cells to CS-1) (Homo sapiens, UniProt P13612+P26010); assay: RPMI-CS-1 cell adhesion assay; format: cell-based; details: adhesion of RPMI B-cell line (expresses α4β7) to CS-1 peptide coated microwells; read-out: RPMI-CS-1 IC50 value range
T1 construct: endogenous in cells
T1 sequence (P13612 34-1032): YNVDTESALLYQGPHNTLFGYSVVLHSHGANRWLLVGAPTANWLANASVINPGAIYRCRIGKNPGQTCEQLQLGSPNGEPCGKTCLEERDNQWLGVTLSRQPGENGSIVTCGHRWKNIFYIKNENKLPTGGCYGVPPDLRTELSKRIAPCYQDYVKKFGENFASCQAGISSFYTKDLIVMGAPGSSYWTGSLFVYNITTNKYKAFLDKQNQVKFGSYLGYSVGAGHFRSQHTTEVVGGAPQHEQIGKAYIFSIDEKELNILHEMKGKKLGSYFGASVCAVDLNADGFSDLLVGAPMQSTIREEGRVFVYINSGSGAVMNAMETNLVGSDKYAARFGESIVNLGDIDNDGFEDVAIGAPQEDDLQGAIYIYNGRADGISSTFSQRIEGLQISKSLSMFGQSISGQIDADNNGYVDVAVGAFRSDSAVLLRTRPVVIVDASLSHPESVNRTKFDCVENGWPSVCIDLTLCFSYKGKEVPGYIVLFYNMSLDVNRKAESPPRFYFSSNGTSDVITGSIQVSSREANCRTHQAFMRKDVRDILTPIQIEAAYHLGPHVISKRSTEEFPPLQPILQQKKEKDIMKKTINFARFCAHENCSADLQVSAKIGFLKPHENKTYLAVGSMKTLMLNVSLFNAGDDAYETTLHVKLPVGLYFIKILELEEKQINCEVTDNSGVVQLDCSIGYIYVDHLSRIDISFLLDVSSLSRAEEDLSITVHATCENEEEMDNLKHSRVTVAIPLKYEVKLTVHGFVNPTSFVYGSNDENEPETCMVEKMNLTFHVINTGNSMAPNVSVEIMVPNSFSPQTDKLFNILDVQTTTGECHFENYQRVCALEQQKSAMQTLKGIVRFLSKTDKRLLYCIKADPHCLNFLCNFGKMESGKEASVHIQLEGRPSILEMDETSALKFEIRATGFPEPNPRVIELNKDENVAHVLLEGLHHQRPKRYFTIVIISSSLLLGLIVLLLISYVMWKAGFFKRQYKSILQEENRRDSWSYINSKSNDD
T1 sequence (P26010 20-798): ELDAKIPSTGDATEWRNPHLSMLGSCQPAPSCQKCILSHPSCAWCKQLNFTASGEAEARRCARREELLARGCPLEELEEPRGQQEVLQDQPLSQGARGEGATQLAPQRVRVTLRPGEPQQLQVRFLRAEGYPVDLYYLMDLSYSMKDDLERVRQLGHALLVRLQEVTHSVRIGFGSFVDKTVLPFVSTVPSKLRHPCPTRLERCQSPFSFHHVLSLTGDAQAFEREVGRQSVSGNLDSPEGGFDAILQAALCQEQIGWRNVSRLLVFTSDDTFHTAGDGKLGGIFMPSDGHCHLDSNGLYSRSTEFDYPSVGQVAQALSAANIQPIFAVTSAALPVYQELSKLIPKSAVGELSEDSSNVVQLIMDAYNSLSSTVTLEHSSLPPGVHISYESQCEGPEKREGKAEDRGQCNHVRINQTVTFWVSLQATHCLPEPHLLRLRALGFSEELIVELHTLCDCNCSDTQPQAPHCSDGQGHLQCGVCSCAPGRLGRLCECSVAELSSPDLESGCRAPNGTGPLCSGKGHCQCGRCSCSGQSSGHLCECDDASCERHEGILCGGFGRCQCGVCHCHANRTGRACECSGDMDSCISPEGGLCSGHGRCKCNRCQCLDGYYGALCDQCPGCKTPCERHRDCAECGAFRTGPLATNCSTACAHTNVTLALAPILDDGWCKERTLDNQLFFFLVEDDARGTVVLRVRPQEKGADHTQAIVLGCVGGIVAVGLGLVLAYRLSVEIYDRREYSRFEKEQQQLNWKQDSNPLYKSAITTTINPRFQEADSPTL

Row | Structure (SMILES) | IC50 [1] | melting point
1 | O=C(N[C@@H](Cc1ccc(-c2cccc3c2OCCC3)cc1)C(=O)O)c1c(Cl)cccc1Cl [Example 328] | < 300 nM | 214 to 215 °C
2 | CCCCCCC(=O)c1cc(C[C@H](NC(=O)c2c(Cl)cccc2Cl)C(=O)O)ccc1-c1ccccc1OC [Example 339] | < 300 nM | 86 to 88 °C
3 | CCOC(=O)[C@H](Cc1ccc(-c2c(OC)cc(CN3CCOCC3)cc2OC)cc1)NC(=O)c1c(Cl)cccc1Cl.Cl |  | 177.5 °C
4 | CCOC(=O)[C@H](Cc1ccc(-c2c(OC)cc(CN3CCN(C)CC3)cc2OC)cc1)NC(=O)c1c(F)cccc1F (as salt: HCl) [Example 356] |  | 226 °C
5 | COc1ccccc1-c1ccc(C[C@H](NC(=O)c2ccc(N(C)S(C)(=O)=O)cc2Cl)C(=O)O)cc1 |  | 79.3 °C
6 | CNc1ccc(C(=O)N[C@@H](Cc2ccc(-c3ccccc3OC)cc2)C(=O)O)c(Cl)c1 |  | 82.8 °C
7 | Cc1noc(C)c1-c1ccc(C[C@H](NC(=O)c2c(Cl)cccc2Cl)C(=O)O)cc1 [Example 330, N-(2,6-Dichlorobenzoyl)-4-(3,5-dimethyl-4-isoxazolyl)-L-phenylalanine] |  | 119 °C
8 | CSc1ccccc1-c1ccc(C[C@H](NC(=O)c2c(Cl)cccc2Cl)C(=O)O)cc1 [Example 143] | < 300 nM | 
9 | COc1ccc(S(=O)(=O)Nc2ccc(C(=O)N[C@@H](Cc3ccc(-c4ccccc4OC)cc3)C(=O)O)c(Cl)c2)cc1 [Example 190, N-[2-Chloro-4-[[(4-methoxyphenyl)sulfonyl]amino]-benzoyl]-4-(2-methoxyphenyl)-L-phenylalanine] | < 300 nM | 
10 | COc1ccccc1-c1ccc(C[C@@H](NC(=O)c2cccc(NS(=O)(=O)C(F)(F)F)c2Cl)C(=O)O)cc1 [Example 186, N-[2-Chloro-3-[(trifluoromethanesulfonyl)amino]-benzoyl]-4-(2-methoxyphenyl)-D-phenylalanine] | 300 to 1000 nM | 
11 | O=C(N[C@@H](Cc1ccc(-c2ccccc2)cc1)C(=O)O)c1c(Cl)cccc1Cl [Example 111] | 1000 to 5000 nM | 
12 | COc1ccccc1-c1ccc(C[C@H](NC(=O)c2ccccc2C(F)(F)F)C(=O)O)cc1 [Example 88] | 1000 to 5000 nM | 
13 | COCc1ccccc1-c1ccc(C[C@H](NC(=O)c2c(Cl)cccc2Cl)C(=O)O)cc1 [Example 51, N-(2,6-Dichlorobenzoyl)-4-[2-(methoxymethyl)phenyl]-L-phenylalanine] | 300 to 1000 nM | 
14 | C[S+]([O-])c1ccccc1-c1ccc(C[C@H](NC(=O)c2c(Cl)cccc2Cl)C(=O)O)cc1 (single isomer, unassigned) [Example 152A, N-(2,6-dichloro-benzoyl)-4-[2-(methylsulfinyl)phenyl]-L-phenylalanine] | < 300 nM | 
15 | CC(C)Oc1cccc(-c2ccc(C[C@H](NC(=O)c3c(Cl)cccc3Cl)C(=O)O)cc2)c1 [Example 224, N-(2,6-Dichlorobenzoyl)-4-(3-i-propoxyphenyl)-L-phenylalanine] | 1000 to 5000 nM | 
16 | COc1ccccc1-c1ccc(C[C@H](NC(=O)c2ccc(NS(=O)(=O)c3cccs3)cc2Cl)C(=O)O)cc1 [Example 191, N-[2-Chloro-4-[(2-thienylsulfonyl)amino]benzoyl]-4-(2-methoxyphenyl)-L-phenylalanine] | < 300 nM | 
17 | CC(C)COc1ccccc1-c1ccc(C[C@H](NC(=O)c2c(Cl)cccc2Cl)C(=O)O)cc1 [Example 35] | 1000 to 5000 nM | 
18 | CC(C)(C)NS(=O)(=O)c1ccccc1-c1ccc(C[C@H](NC(=O)c2c(Cl)cccc2Cl)C(=O)O)cc1 [Example 16, N-(2,6-Dichlorobenzoyl)-4-[2-[N-(tert-butyl)sulfamoyl]phenyl]-L-phenylalanine] | < 300 nM | 
19 | Cc1ccc(-c2ccc(C[C@H](NC(=O)c3c(Cl)cccc3Cl)C(=O)O)cc2)cc1 [Example 117] | 1000 to 5000 nM | 
20 | NCc1ccccc1-c1ccc(C[C@H](NC(=O)c2c(Cl)cccc2Cl)C(=O)O)cc1 [Example 47, N-(2,6-Dichlorobenzoyl)-4-[2-(aminomethyl)phenyl]-L-phenylalanine] | < 300 nM | 
21 | O=C(N[C@@H](Cc1ccc(-c2ccccc2CNCc2ccccc2)cc1)C(=O)O)c1c(Cl)cccc1Cl [Example 48, N-(2,6-Dichlorobenzoyl)-4-[2-[(benzylamino)methyl]phenyl]-L-phenylalanine] | 1000 to 5000 nM | 
22 | COc1ccccc1-c1ccc(C[C@H](NC(=O)c2ccc(NS(=O)(=O)c3ccccc3)cc2Cl)C(=O)O)cc1 [Example 68, N-[2-Chloro-4-(benzenesulfonylamino)benzoyl]-4-(2-methoxyphenyl)-L-phenylalanine] | < 300 nM | 
23 | COC(=O)[C@H](Cc1ccc(-c2cccnc2)cc1)NC(=O)c1c(Cl)cccc1Cl [Example 127] | > 5000 nM | 

Now from value to compound:

Row | IC50 [1] | melting point | Structure (SMILES)
24 | < 300 nM | 147 to 149 °C | COC(=O)Nc1cc(Cl)c(C(=O)N[C@@H](Cc2ccc(-c3c(OC)cccc3OC)cc2)C(=O)O)c(Cl)c1 [Example 201]
25 | < 300 nM | 110 to 112 °C | CNC(=O)Nc1cc(Cl)c(C(=O)N[C@@H](Cc2ccc(-c3c(OC)cccc3OC)cc2)C(=O)O)c(Cl)c1 [Example 203]
26 |  | 224.4 °C | COc1cccc(O)c1-c1ccc(C[C@H](NC(=O)c2c(Cl)cccc2Cl)C(=O)O)cc1 [Example 359, N-(2,6-Dichlorobenzoyl)-4-(6-methoxy-2-hydroxyphenyl)-L-phenylalanine]
27 |  | 156 °C | COc1cccc(OC)c1-c1ccc(C[C@H](NC(=O)c2c(Cl)cc(-c3ccn[nH]3)cc2Cl)C(=O)O)cc1 (as salt: TFA) [Example 304, N-[4-(5-Pyrazolyl)-2,6-dichlorobenzoyl)-4-(2,6-dimethoxyphenyl)-L-phenylalanine]
28 |  | 146.5 °C | CCOC(=O)[C@H](Cc1ccc(-c2c(OC)cc(CN(C)C)cc2OC)cc1)NC(=O)c1c(Cl)cccc1Cl (as salt: hydrochloride) [Example 259, N-(2,6-Dichlorobenzoyl)-4-[2,6-dimethoxy-4-[(N,N-dimethylamino)methyl]phenyl]-L-phenylalanine ethyl ester hydrochloride]
29 |  | 86 to 89 °C | COc1cc(CN2CCSCC2)cc(OC)c1-c1ccc(C[C@H](NC(=O)c2c(Cl)cccc2Cl)C(=O)O)cc1 [Example 253, N-(2,6-dichlorobenzoyl)-4-[2,6-dimethoxy-4-(thiomorpholinomethyl)phenyl]-L-phenylalanine]
30 | < 300 nM |  | COc1cc(F)c(-c2ccc(C[C@H](NC(=O)c3c(Cl)cccc3Cl)C(=O)O)cc2)c(OC)c1 [Example 139]
31 | < 300 nM |  | COc1cccc(O)c1-c1ccc(C[C@H](NC(=O)c2c(Cl)cccc2Cl)C(=O)O)cc1 [Example 31, N-(2,6-Dichlorobenzoyl)-4-(2-hydroxy-6-methoxyphenyl)-L-phenylalanine]
32 | < 300 nM |  | COc1c(F)cc(F)c(OC)c1-c1ccc(C[C@H](NC(=O)c2c(Cl)cccc2Cl)C(=O)O)cc1 [Example 153B, N-(2,6-dichlorobenzoyl)-4-(2,6-dimethoxy-3,5-difluorophenyl)-L-phenylalanine]
33 | < 300 nM |  | COc1cc(CN2CCSCC2)cc(OC)c1-c1ccc(C[C@H](NC(=O)c2c(Cl)cccc2Cl)C(=O)O)cc1 [Example 134]
34 | 1000 to 5000 nM |  | COc1cccc(N(C)C)c1-c1ccc(C[C@H](NC(=O)c2c(Cl)cccc2Cl)C(=O)O)cc1 [Example 29, N-(2,6-Dichlorobenzoyl)-4-[2-(N,N-dimethylamino)-6-methoxyphenyl]-L-phenylalanine]
